In patent US7150886B2, “Composition for treating diseased liver” (Industrial Technology Research Institute, priority 2002, dated 2006):

Experiments:
[1] = tested on: B type hepatitis; conditions: treating B type hepatitis; cited from earlier work
[2] = tested on: rats with d-galactosamine-induced acute hepatitis; test: D-galactosamine-induced acute hepatitis in rats, serum GOT and GPT; format: in vivo; conditions: rat serum 24 h after d-galactosamine i.p. (500 mg/kg); test substance oral × 3, dose per group as in Table 3; N = 5
Protocol: The liver enzymes were dramatically released to the blood stream when the hepatocyte was damaged, and thus the serum GOT and GPT values increased. […] In other words, the restoration effects of the extracts on the damaged liver were evaluated through comparing the GOT and GPT variations before and after a treatment of the extracts.
Five male rats were divided in each group, each rat with body weight about 200±20 g. […] The reference group was orally given guanine (300 mg/kg). Half an hour later, each group was i.p. with d-galactosamine (500 mg/kg), except the control group. Four and eight hours after first injection, test substances were administered orally again at the same dose. After 24 hours, the animals were sacrificed, and the blood was collected from the carotid arteries. The serum was separated and incubated at room temperature for 10 minutes, and then centrifuged (Backman centrifuge, GS-6R, 3000 rpm) for another 10 minutes. The activities of rat serum GOT (Glutamyl Oxaloacetic Transaminase) and GPT (Glutamyl Pyrubic Transaminase) were measured.

| Compound | positive response [1] [%] | GOT [2] [U/L] | GPT [2] [U/L] |
| --- | --- | --- | --- |
| interferon | 20 | – | – |
| Nc1nc2nc[nH]c2c(=O)[nH]1 [Guanine, guanine] | – | 1024.8 ± 91.1 | 602.4 ± 61.7 |
